# Data reported in the NIST ThermoML archive (doi:10.1021/je050413l).
# “And” between values parts separate entries of the source, which are not always exact repeats. Identical values can stand only once. ± gives the expanded uncertainty stated by the source.
# What was measured:
# [1] = 303.15 K, Liquid; for speed of sound / viscosity: 101 kPa; for mass density: 101.33 kPa, Pycnometric method
# [2] = xn = mol fraction of the nth substance listed; conditions: 303.15 K, 101 kPa, Liquid, Direct dilatometry
# [3] = φn = volume fraction of the nth substance listed; conditions: 303.15 K, 101 kPa, Liquid
smiles,measurement,setting,value
Cc1ccc(Cl)cc1 [4-chlorotoluene],speed of sound,[1],1271 ± 12 m/s
same,viscosity,[1],0.9 ± 0.032 mPa·s
same,mass density,[1],1060.54 ± 2.8 kg/m3
Cc1ccc(Cl)cc1 [4-chlorotoluene] + CC(=O)c1ccccc1,excess molar volume,[2]; x2 = 0.087,1.6e-08 ± 6e-09 m3/mol
same,excess molar volume,[2]; x2 = 0.1206,2e-08 ± 6e-09 m3/mol
same,excess molar volume,[2]; x2 = 0.2175,2.7e-08 ± 6e-09 m3/mol
same,excess molar volume,[2]; x2 = 0.3009,3.4e-08 ± 6e-09 m3/mol
same,excess molar volume,[2]; x2 = 0.4017,4.1e-08 ± 6e-09 m3/mol
same,excess molar volume,[2]; x2 = 0.5224,4.4e-08 ± 6e-09 m3/mol
same,excess molar volume,[2]; x2 = 0.6211,3.9e-08 ± 6e-09 m3/mol
same,excess molar volume,[2]; x2 = 0.7025,3.2e-08 ± 6e-09 m3/mol
same,excess molar volume,[2]; x2 = 0.8214,2.1e-08 ± 6e-09 m3/mol
same,excess molar volume,[2]; x2 = 0.8774,1.6e-08 ± 6e-09 m3/mol
same,speed of sound,[3]; φ2 = 0,1271 ± 12 m/s
same,viscosity,[3]; φ2 = 0,0.9 ± 0.032 mPa·s
same,speed of sound,[3]; φ2 = 0.0807,1304 ± 12 m/s
same,viscosity,[3]; φ2 = 0.0807,0.903 ± 0.032 mPa·s
same,speed of sound,[3]; φ2 = 0.1193,1314 ± 12 m/s
same,viscosity,[3]; φ2 = 0.1193,1.011 ± 0.035 mPa·s
same,speed of sound,[3]; φ2 = 0.2153,1343 ± 12 m/s
same,viscosity,[3]; φ2 = 0.2153,1.058 ± 0.037 mPa·s
same,speed of sound,[3]; φ2 = 0.2982,1371 ± 12 m/s
same,viscosity,[3]; φ2 = 0.2982,1.118 ± 0.039 mPa·s
same,speed of sound,[3]; φ2 = 0.3986,1406 ± 12 m/s
same,viscosity,[3]; φ2 = 0.3986,1.198 ± 0.042 mPa·s
same,speed of sound,[3]; φ2 = 0.5192,1419 ± 12 m/s
same,viscosity,[3]; φ2 = 0.5192,1.286 ± 0.045 mPa·s
same,speed of sound,[3]; φ2 = 0.6181,1430 ± 12 m/s
same,viscosity,[3]; φ2 = 0.6181,1.352 ± 0.047 mPa·s
same,speed of sound,[3]; φ2 = 0.6998,1440 ± 12 m/s
same,viscosity,[3]; φ2 = 0.6998,1.4 ± 0.048 mPa·s
same,speed of sound,[3]; φ2 = 0.8195,1448 ± 13 m/s
same,viscosity,[3]; φ2 = 0.8195,1.469 ± 0.051 mPa·s
same,speed of sound,[3]; φ2 = 0.876,1453 ± 13 m/s
same,viscosity,[3]; φ2 = 0.876,1.496 ± 0.051 mPa·s
CC(=O)c1ccccc1 [acetophenone],speed of sound,[1],1460 ± 8 m/s and 1466 ± 8 m/s
same,viscosity,[1],1.511 ± 0.052 mPa·s
same,mass density,[1],1019.43 ± 2.7 kg/m3
CC(=O)c1ccccc1 [acetophenone] + Cc1ccc(Cl)cc1,speed of sound,[3]; φ1 = 1,1460 ± 13 m/s
same,viscosity,[3]; φ1 = 1,1.511 ± 0.052 mPa·s
CC(=O)c1ccccc1 [acetophenone] + Cc1cccc(Cl)c1,speed of sound,[3]; φ1 = 1,1460 ± 8 m/s
same,viscosity,[3]; φ1 = 1,1.511 ± 0.052 mPa·s
CC(=O)c1ccccc1 [acetophenone] + Cc1cccc([N+](=O)[O-])c1,speed of sound,[3]; φ1 = 1,1466 ± 9 m/s
same,viscosity,[3]; φ1 = 1,1.511 ± 0.052 mPa·s
CC(=O)c1ccccc1 [acetophenone] + Cc1ccccc1Cl,excess molar volume,[2]; x1 = 0.0901,6e-09 ± 6e-09 m3/mol
same,excess molar volume,[2]; x1 = 0.151,9e-09 ± 6e-09 m3/mol
same,excess molar volume,[2]; x1 = 0.2271,1.3e-08 ± 6e-09 m3/mol
same,excess molar volume,[2]; x1 = 0.3205,1.6e-08 ± 6e-09 m3/mol
same,excess molar volume,[2]; x1 = 0.4021,1.8e-08 ± 6e-09 m3/mol
same,excess molar volume,[2]; x1 = 0.5219,2e-08 ± 6e-09 m3/mol
same,excess molar volume,[2]; x1 = 0.6224,2e-08 ± 6e-09 m3/mol
same,excess molar volume,[2]; x1 = 0.702,1.8e-08 ± 6e-09 m3/mol
same,excess molar volume,[2]; x1 = 0.8194,1.5e-08 ± 6e-09 m3/mol
same,excess molar volume,[2]; x1 = 0.9005,9e-09 ± 6e-09 m3/mol
same,speed of sound,[3]; φ1 = 0.09,1310 ± 7 m/s
same,viscosity,[3]; φ1 = 0.09,0.901 ± 0.032 mPa·s
same,speed of sound,[3]; φ1 = 0.1508,1326 ± 7 m/s
same,viscosity,[3]; φ1 = 0.1508,0.949 ± 0.033 mPa·s
same,speed of sound,[3]; φ1 = 0.2269,1345 ± 8 m/s
same,viscosity,[3]; φ1 = 0.2269,0.999 ± 0.035 mPa·s
same,speed of sound,[3]; φ1 = 0.3202,1368 ± 8 m/s
same,viscosity,[3]; φ1 = 0.3202,1.066 ± 0.037 mPa·s
same,speed of sound,[3]; φ1 = 0.4018,1387 ± 8 m/s
same,viscosity,[3]; φ1 = 0.4018,1.123 ± 0.039 mPa·s
same,speed of sound,[3]; φ1 = 0.5216,1409 ± 8 m/s
same,viscosity,[3]; φ1 = 0.5216,1.225 ± 0.043 mPa·s
same,speed of sound,[3]; φ1 = 0.6221,1423 ± 8 m/s
same,viscosity,[3]; φ1 = 0.6221,1.305 ± 0.045 mPa·s
same,speed of sound,[3]; φ1 = 0.7017,1432 ± 8 m/s
same,viscosity,[3]; φ1 = 0.7017,1.41 ± 0.049 mPa·s
same,speed of sound,[3]; φ1 = 0.8192,1448 ± 8 m/s
same,viscosity,[3]; φ1 = 0.8192,1.465 ± 0.05 mPa·s
same,speed of sound,[3]; φ1 = 0.9004,1451 ± 8 m/s
same,viscosity,[3]; φ1 = 0.9004,1.502 ± 0.052 mPa·s
same,speed of sound,[3]; φ1 = 1,1460 ± 8 m/s
same,viscosity,[3]; φ1 = 1,1.511 ± 0.052 mPa·s
CC(=O)c1ccccc1 [acetophenone] + Cc1ccccc1[N+](=O)[O-],speed of sound,[3]; φ1 = 1,1460 ± 9 m/s
same,viscosity,[3]; φ1 = 1,1.511 ± 0.052 mPa·s
